Experimental data as given in US10633351B2, “Halogenated compound and axially chiral isomer thereof” (MEDSHINE DISCOVERY INC., priority 2016, dated 2020).
Like-named read-outs stand apart in the source and are kept apart here. Blank lines part the entries; values can stand above or below the compound they belong to.

Legend:
URAT-1 = biological target: T1, URAT-1 (Homo sapiens, UniProt Q96S37); experiment: Inhibition of 14C-labelled uric acid transport in MDCK cell line stably transfected with the URAT-1 gene; type: cell-based; details: for IC50: MDCK cells stably transfected with URAT-1, 14C uric acid 50 uM, read-out: IC50 against URAT-1
T1 construct: expressed in transfected cells; host or cells: MDCK
T1 sequence (Q96S37 1-553): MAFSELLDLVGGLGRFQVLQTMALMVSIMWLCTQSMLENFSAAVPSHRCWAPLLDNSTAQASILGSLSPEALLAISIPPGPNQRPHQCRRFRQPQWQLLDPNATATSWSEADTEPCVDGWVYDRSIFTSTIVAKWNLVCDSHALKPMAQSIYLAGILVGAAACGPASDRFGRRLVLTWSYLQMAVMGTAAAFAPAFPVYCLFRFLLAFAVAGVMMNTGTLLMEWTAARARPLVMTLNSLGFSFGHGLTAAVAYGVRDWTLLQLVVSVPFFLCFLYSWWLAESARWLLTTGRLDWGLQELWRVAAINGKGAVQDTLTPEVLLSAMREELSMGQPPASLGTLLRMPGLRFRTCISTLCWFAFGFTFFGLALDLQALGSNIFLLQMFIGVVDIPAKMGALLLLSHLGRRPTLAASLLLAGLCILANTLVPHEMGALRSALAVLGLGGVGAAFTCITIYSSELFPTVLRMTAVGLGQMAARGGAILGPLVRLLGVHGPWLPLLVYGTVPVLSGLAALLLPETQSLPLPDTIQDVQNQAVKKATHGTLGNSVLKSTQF
Description: The inventors examined the ability of these compounds to inhibit the transport of labeled uric acid by MDCK cell lines stably transfected with the human URAT1 gene.
Determination of the IC50 value of the inhibitory activity of the compound against uric acid reabsorption by the MDCK cell line stably transfected with the URAT-1 (uric acid transporter) gene.
URAT-1 (MDCK) cell line: the MDCK cell line stably transfected with the URAT-1 gene
Cell culture medium: MEM culture medium added 10% fetal bovine serum (FBS), 1% sodium pyruvate and 250 ug/ml G418.
4) cells were diluted to 2.5×10^5/mL with the culture medium, and the diluted cells were added into a rat tail collagen-coated 24-well plate (800 uL/well, 2×10^5 cells/well). The plate was incubated overnight at 37° C. in a 5% CO2 incubator.
1) cells were seeded into 24-well plate, and supernatant was discarded after 16-18 h. The cells were washed twice using 600 ul HBSS buffer.
2) HBSS buffer was removed and 180 ul of HBSS buffer was added into each well again.
1) powder of compounds was dissolved into 100% DMSO, and diluted into 6 concentration points by 3-fold dilution, or into 2 concentration points by 10-fold dilution, and the highest starting concentration was 50 mM.
2) 5 ul DMSO solution in step 1) was transferred into 120 ul of HBSS buffer to make a 25-fold dilution.
3) 10 ul diluted solution in step 2) was added into 24-well plate, and the plate was incubated for 15 min at 37° C. in a 5% CO2 incubator. The final concentration of DMSO was 0.2%. The control well contained 0.2% DMSO without compound.
^14C-labelled uric acid was diluted and added into plate, and the final concentration was 50 uM. The plate was incubated for 10 min at 37° C. in a 5% CO2 incubator. After supernatant was discarded, cells were washed with HBSS buffer twice. Cells was lysed with 0.1M NaOH. And then cell lysis solution was collected into liquid scintillation tube and added with liquid scintillation solution. The signal was read by liquid scintillation counter Tri-Carb.
URAT-1 inhibition by the treatment of the compounds was analyzed by calculating the percentage of inhibition according to […] data. Non-linear curve fitting analysis on the percent inhibition (inh %) data using GraphPad Prism software generate the IC50 value.

[1] = Pharmacokinetics in SD rats after IV and PO administration; type: in vivo; details: rat; for MRT inf: read-out: Detention time MRT0-inf; for half-life: read-out: Half-life T1/2 (converted); for C0: read-out: Starting concentration C0; for bioavailability: read-out: Bioavailability F; for Cmax: read-out: Peak concentration Cmax
Method: Drug concentrations in plasma of (−)-WX001 and (+)-WX002 were measured by LC/MS/MS method at different times after SD rats as tested animals were administered (−)-WX001 and (+)-WX002 by IV (intravenous injection) and PO (gavage), and the pharmacokinetic behavior of the compound in the present invention in rats was investigated, and its pharmacokinetic characteristics were evaluated.
12 healthy adult male SD rats were divided into 4 groups (each compound contained IV and PO group), 3 rats per group. SD rats were purchased from Shanghai Slac Laboratory Animal CO.LTD, whose animal production license number was SCXK (Shanghai) 2012-0002.
The appropriate amount of the sample was weighed, added a certain amount of DMSO and ultrasonic dissolved, and then was added 20% hydroxypropyl-β-cyclodextrin solution to give tested compound which was 1 mg/mL 5% DMSO/95% 20% HPCD clear solution used for IV and PO administration.
12 SD rats were divided into 4 groups and there were 3 male rats in each group, and administrated by IV, PO, respectively after fasting overnight. The dose of IV was 2 mg/kg and administration volume was 2 mL/kg; the dose of PO was 10 mg/kg and administration volume was 10 mL/kg.
In group of IV, about 200 μL of blood was collected at 0.083, 0.25, 0.5, 1, 2, 4, 6, 8, 24 hour after administration, placed in an anticoagulant tube of K2-EDTA, centrifuged at 3000 rpm for 15 minutes, and then plasma was separated and stored at −80° C. In group of PO, blood was collected at 0.25, 0.5, 1, 2, 4, 6, 8, 24 hour after administration, and the other operations were the same as the group of IV. The plasma samples were pretreated through precipitated protein and the plasma concentration was determined by LC/MS/MS method. A linear range of the analytical method was 4.00-6000 nM.

[2] = Metabolite identification after 120 min incubation in human hepatocytes (LC-UV-MSn); type: in vitro ADME; details: for metabolites detected: human hepatocyte metabolism, same condition as (±)-Lesinurad; for Percentage of ultraviolet area: human hepatocytes, 10 μM, 120 min
Method: The purpose of this experiment was to confirm the metabolites of a series of compounds after incubation for 120 minutes in human hepatocytes using LC-UV-MS^n (n=1-2) detection. MS and MS^2 data were analyzed using MetaboLynx™ software after data collection.
Alter incubating the sample for 2 h, the protein was precipitated by using acetonitrile containing 01.% formic acid, centrifuged, and the supernatant was taken out and dried an under nitrogen, and dissolved and then injected for analysis.

[3] = hepatocyte, dog; cited from earlier work
[4] = human, 0-144 h, after Lesinurad, cited from earlier work
[5] = liver microsome, dog; cited from earlier work
[6] = liver microsome, rat; cited from earlier work
[7] = hepatocyte, human; cited from earlier work
[8] = liver microsome, monkey; cited from earlier work
[9] = hepatocyte, monkey; cited from earlier work
[10] = liver microsome, human; cited from earlier work
[11] = hepatocyte, rat; cited from earlier work
[12] = male, SD, plasma, iv, 2 mg/kg, IV 2 mpk
[13] = male, SD, plasma, po, 10 mg/kg, PO 10 mpk

IC50 (URAT-1): 1.1 µM
Structure (SMILES): CC(C)(Sc1nnc(Br)n1-c1c(Cl)cc(C2CC2)c2ccccc12)C(=O)O (single isomer, unassigned) [(−)-WX004]
inhibitory activity against URAT-1 compared with reference (±)-Lesinurad (URAT-1; URAT1 MDCK cells): significantly improved inhibitory activity

IC50 (URAT-1): 8 µM
fold inhibitory activity in vitro compared to the other isomer (+)-WX002 (URAT-1; URAT1 MDCK cells): more than 3 fold
Tmax ([1]; male, SD, plasma, 10 mg/kg, PO 10 mpk, read-out: Peak time Tmax): 1.67 h
AUC(0-inf) ([1]; male, SD, plasma, iv, 2 mg/kg, IV 2 mpk, read-out: Area under curve AUC0-inf): 33 µM·h
clearance ([1]; male, SD, plasma, iv, 2 mg/kg, IV 2 mpk, read-out: Clearance rate Cl): 2.31 mL/min/kg
MRT inf [1, 12]: 4.4 h
half-life [1, 12]: 2.86 h
C0 [1, 12]: 11.7 µM
Vd ([1]; male, SD, plasma, iv, 2 mg/kg, IV 2 mpk, read-out: apparent volume of distribution Vdss): 0.61 L/kg
bioavailability [1, 13]: 94%
MRT inf [1, 13]: 7.18 h
half-life [1, 13]: 4.86 h
Cmax [1, 13]: 20.6 µM
Area under curve AUC0-inf ([1]; PO 10 mpk, 10 mg/kg): 154.895 µM·h
metabolites detected [2]: no metabolites were detected
Percentage of ultraviolet area [2]: 100%
Structure (SMILES): O=C(O)CSc1nnc(Br)n1-c1c(Cl)cc(C2CC2)c2ccccc12 (single isomer, unassigned) [(−)-WX001]
inhibitory activity against URAT-1 compared with reference (±)-Lesinurad (URAT-1; URAT1 MDCK cells): significantly improved inhibitory activity

bioavailability [1, 13]: 84%
Area under curve AUC0-inf ([1]; IV 2 mpk): 14.823 µM·h
C0 ([1]; IV 2 mpk): 11.6 µM
Area under curve AUC0-inf ([1]; PO 10 mpk): 62.491 µM·h
Cmax ([1]; PO 10 mpk): 14.5 µM
Percentage of ultraviolet area [2]: 95.60%
Structure (SMILES): O=C(O)CSc1nnc(Br)n1-c1ccc(C2CC2)c2ccccc12 (racemic) [(±)-Lesinurad, Lesinurad, reference compound]
amount of metabolite / parent found (Total 100) [3]: 100
Percentage of administered dose ([4]; Feces): 1.5%
Percentage of administered dose ([4]; Urine): 31.3%
amount of metabolite / parent found (Total 100) [5]: 100
amount of metabolite / parent found (Total 100) [6]: 100
amount of metabolite / parent found (Total 100) [7]: 92.1
amount of metabolite / parent found (Total 100) [8]: 92.1
amount of metabolite / parent found (Total 100) [9]: 98.1
amount of metabolite / parent found (Total 100) [10]: 100
amount of metabolite / parent found (Total 100) [11]: 100

IC50 (URAT-1): 1.4 µM
Structure (SMILES): CC(C)(Sc1nnc(Br)n1-c1c(Cl)cc(C2CC2)c2ccccc12)C(=O)O (single isomer, unassigned) [(+)-WX005]
inhibitory activity against URAT-1 compared with reference (±)-Lesinurad (URAT-1; URAT1 MDCK cells): significantly improved inhibitory activity

IC50 (URAT-1): 10.4 µM
Structure (SMILES): O=C(O)CSc1nnc(Br)n1-c1c(Cl)cc(C2CC2)c2ccccc12 (racemic) [(±)-WX003]

Further lines, the compound ahead of its results:

Structure (SMILES): O=C(O)CSc1nnc(Br)n1-c1ccc(C2CC2)c2c1C=CC(O)C2O (stereo not drawn) [Compound M4]
amount of metabolite / parent found (Total 100) [3]: not detected
Percentage of administered dose ([4]; Feces): 5.0%
Percentage of administered dose ([4]; Urine): 15.7%
amount of metabolite / parent found (Total 100) [11]: not detected

Structure (SMILES): O=C(O)CSc1nncn1-c1ccc(C2(O)CC2)c2ccccc12 [Compound M5]
Percentage of administered dose ([4]; Feces): 3.6%

Structure (SMILES): O=C(O)CSc1nncn1-c1ccc(C2CC2)c2ccccc12 [Compound M2]
Percentage of administered dose ([4]; Feces): 4.8%
Percentage of administered dose ([4]; Urine): 0.3%

Structure (SMILES): O=C(O)CSc1nnc(Br)n1-c1ccc(C2(O)CC2)c2ccccc12 [Compound M3]
amount of metabolite / parent found (Total 100) [3]: not detected
Percentage of administered dose ([4]; Feces): 0.3%
Percentage of administered dose ([4]; Urine): 12.0%
amount of metabolite / parent found (Total 100) [8]: 7.9
amount of metabolite / parent found (Total 100) [11]: not detected

Structure (SMILES): O=C(O)CSc1nnc(Br)n1-c1c(Cl)cc(C2CC2)c2ccccc12 (single isomer, unassigned) [(+)-WX002]
IC50 (URAT-1): > 20 µM
inhibitory activity against URAT-1 compared with reference (±)-Lesinurad (URAT-1; URAT1 MDCK cells): significantly improved inhibitory activity
Area under curve AUC0-inf ([1]; IV 2 mpk, 2 mg/kg): 16.775 µM·h
Clearance rate Cl ([1]; IV 2 mpk, 2 mg/kg): 4.56 mL/min/kg
Detention time MRT0-inf ([1]; IV 2 mpk, 2 mg/kg): 3.58 h
Half-life T1/2 ([1]; IV 2 mpk, 2 mg/kg): 3.51 h
apparent volume of distribution Vdss ([1]; IV 2 mpk, 2 mg/kg): 0.97 L/kg
C0 ([1]; IV 2 mpk, 2 mg/kg): 12.9 µM
Peak time Tmax ([1]; PO 10 mpk): 1.67 h
Area under curve AUC0-inf ([1]; PO 10 mpk, 10 mg/kg): 77.436 µM·h
Bioavailability F ([1]; PO 10 mpk, 10 mg/kg): 76%
Detention time MRT0-inf ([1]; PO 10 mpk, 10 mg/kg): 4.82 h
Half-life T1/2 ([1]; PO 10 mpk, 10 mg/kg): 2.68 h
Cmax ([1]; PO 10 mpk, 10 mg/kg): 12 µM
metabolites detected [2]: no metabolites were detected
Percentage of ultraviolet area [2]: 100%
